Source: paper PMC4279175, “Mechanisms Underlying the Antinociceptive, Antiedematogenic, and Anti-Inflammatory Activity of the Main Flavonoid from Kalanchoe pinnata” (Evidence-based Complementary and Alternative Medicine : eCAM, 2014)

What was measured:
[1] = molecular target: T1, COX-1 (Ovis aries, UniProt P05979); assay: colorimetric COX (ovine) inhibitor screening assay kit (Cayman […]); type: biochemical
T1 construct: gene PTGS1
T1 sequence (P05979 25-600): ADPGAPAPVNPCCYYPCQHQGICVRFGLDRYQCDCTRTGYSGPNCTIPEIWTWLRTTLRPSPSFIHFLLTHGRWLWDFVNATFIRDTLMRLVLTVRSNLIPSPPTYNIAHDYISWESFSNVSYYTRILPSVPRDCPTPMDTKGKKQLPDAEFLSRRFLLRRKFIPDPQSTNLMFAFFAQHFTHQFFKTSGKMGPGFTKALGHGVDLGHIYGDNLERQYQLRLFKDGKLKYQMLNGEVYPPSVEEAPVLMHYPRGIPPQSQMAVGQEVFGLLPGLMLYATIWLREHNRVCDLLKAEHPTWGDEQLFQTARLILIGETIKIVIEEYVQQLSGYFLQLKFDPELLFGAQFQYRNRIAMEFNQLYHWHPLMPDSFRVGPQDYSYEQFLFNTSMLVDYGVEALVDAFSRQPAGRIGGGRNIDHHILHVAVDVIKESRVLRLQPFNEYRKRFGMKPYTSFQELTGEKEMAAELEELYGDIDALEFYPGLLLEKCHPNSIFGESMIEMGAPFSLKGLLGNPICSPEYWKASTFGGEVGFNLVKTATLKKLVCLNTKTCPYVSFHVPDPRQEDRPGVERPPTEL

[2] = molecular target: T2, COX-2 (Ovis aries, UniProt P79208); assay: colorimetric COX (ovine) inhibitor screening assay kit (Cayman […]); […] maximum inhibition at […]; type: biochemical
T2 construct: gene PTGS2
T2 sequence (P79208 17-603): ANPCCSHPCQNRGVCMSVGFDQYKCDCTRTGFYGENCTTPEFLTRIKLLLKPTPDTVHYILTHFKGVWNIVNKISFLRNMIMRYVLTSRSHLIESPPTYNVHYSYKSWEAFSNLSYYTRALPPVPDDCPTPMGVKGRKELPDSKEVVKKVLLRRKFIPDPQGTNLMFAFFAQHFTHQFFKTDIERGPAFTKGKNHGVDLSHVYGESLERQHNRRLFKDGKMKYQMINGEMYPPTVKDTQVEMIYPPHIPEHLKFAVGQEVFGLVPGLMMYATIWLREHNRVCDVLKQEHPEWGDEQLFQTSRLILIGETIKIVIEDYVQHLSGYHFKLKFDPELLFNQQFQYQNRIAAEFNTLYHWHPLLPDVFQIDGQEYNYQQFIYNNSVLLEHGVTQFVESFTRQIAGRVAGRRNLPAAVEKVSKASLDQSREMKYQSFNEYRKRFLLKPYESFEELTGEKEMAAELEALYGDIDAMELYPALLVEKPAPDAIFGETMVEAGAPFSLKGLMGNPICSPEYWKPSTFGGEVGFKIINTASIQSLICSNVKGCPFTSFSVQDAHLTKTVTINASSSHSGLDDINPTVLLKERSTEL

IC50 [1]: 38 µM
IC50 [2]: > 84 µM
SMILES: C[C@@H]1O[C@@H](Oc2c(-c3ccc(O)c(O)c3)oc3cc(O)cc(O)c3c2=O)[C@H](O[C@@H]2OC[C@H](O)[C@H](O)[C@H]2O)[C@H](O)[C@H]1O [KPFV, quercetin 3-O-α-L-arabinopyranosyl (1 → 2) α-L-rhamnopyranoside]
